biological target: LMP7 (purified human immunoproteasome) (Homo sapiens, UniProt P28062); assay: Determination of LMP7 activity (fluorescence intensity assay, Suc-LLVY-AMC); format: biochemical; conditions: incubation for 20 minutes
Procedure: Determination of LMP7 Activity
Measurement of LMP7 inhibition is performed in 384 well format based on fluorescence intensity assay.
Purified human immunoproteasome (0.25 nM) and serial diluted compounds in DMSO (range of concentrations from 30 μM to 15 pM) or controls are incubated for 20 minutes or 120 minutes (long incubation) at 25° C. in assay buffer containing 50 mM Tris pH 7.4, 0.03% SDS, 1 mM EDTA and 1% DMSO. The reaction is initiated by the addition of the fluorogenic peptide substrate, Suc-LLVY-AMC (Bachem I-1395), at a concentration of 40 μM. After 60 minutes of incubation at 37° C., fluorescence intensity is measured at λex=350 nm and λem=450 nm with a fluorescence reader (Perkin Elmer Envision reader or equivalent).
Unless indicated otherwise the results are obtained after incubation for 20 minutes.

Row | IC50 [nM] | Structure (SMILES)
1 | 50 to 500 | CC(=O)N(CCC(=O)N[C@@H](Cc1ccccc1)B(O)O)c1ccccc1 [Compound No. 1, [(1R)-1-[3-(N-acetylanilino)propanoylamino]-2-phenyl-ethyl]boronic acid]
2 | < 50 | CCS(=O)(=O)N(CCC(=O)N[C@@H](Cc1ccc(C)cc1)B(O)O)c1ccccc1 [Compound No. 2, [(1R)-1-[3-(N-ethylsulfonylanilino)propanoylamino]-2-(p-tolyl)ethyl]boronic acid]
3 | < 50 | CCN(CCC(=O)N[C@@H](Cc1ccc(C)cc1)B(O)O)S(=O)(=O)c1ccccc1 [Compound No. 5, [(1R)-1-[3-[benzenesulfonyl(ethyl)amino]propanoylamino]-2-(p-tolyl)ethyl]boronic acid]
4 | < 50 | Cc1ccc(C[C@H](NC(=O)CCN(C(C)C)S(=O)(=O)c2ccccc2)B(O)O)cc1 [Compound No. 6, [(1R)-1-[3-[benzenesulfonyl(isopropyl)amino]propanoylamino]-2-(p-tolyl)ethyl]boronic acid]
5 | < 50 | Cc1ccc(C[C@H](NC(=O)CCN(C)S(=O)(=O)c2ccccc2)B(O)O)cc1 [Compound No. 7, [(1R)-1-[3-[benzenesulfonyl(methyl)amino]propanoylamino]-2-(p-tolyl)ethyl]boronic acid]
6 | 50 to 500 | CN(CCC(=O)N[C@@H](Cc1ccccc1)B(O)O)C(=O)c1ccccc1 [Compound No. 10, [(1R)-1-[3-[benzoyl(methyl)amino]propanoylamino]-2-phenyl-ethyl]boronic acid]
7 | < 50 | CCN(CCC(=O)N[C@@H](Cc1ccc(C)cc1)B(O)O)S(=O)(=O)CC [Compound No. 11, [(1R)-1-[3-[ethyl(ethylsulfonyl)amino]propanoylamino]-2-(p-tolyl)ethyl]boronic acid]
8 | 50 to 500 | CCN(CCC(=O)N[C@@H](Cc1ccccc1)B(O)O)C(=O)c1ccccc1C [Compound No. 12, [(1R)-1-[3-[ethyl-(2-methylbenzoyl)amino]propanoylamino]-2-phenyl-ethyl]boronic acid]
9 | 50 to 500 | CCN(CCC(=O)N[C@@H](Cc1ccccc1)B(O)O)C(=O)c1cccc(C)c1 [Compound No. 13, [(1R)-1-[3-[ethyl-(3-methylbenzoyl)amino]propanoylamino]-2-phenyl-ethyl]boronic acid]
10 | 50 to 500 | Cc1ccc(C[C@H](NC(=O)CCN(C(C)C)S(C)(=O)=O)B(O)O)cc1 [Compound No. 15, [(1R)-1-[3-[isopropyl(methylsulfonyl)amino]propanoylamino]-2-(p-tolyl)ethyl]boronic acid]
11 | 50 to 500 | CCN(CC(=O)N[C@@H](Cc1ccccc1)B(O)O)C(=O)c1ccccc1 [Compound No. 17, [(1R)-1-[[2-[benzoyl(ethyl)amino]acetyl]amino]-2-phenyl-ethyl]boronic acid]
12 | 50 to 500 | CCc1cccc(C[C@H](NC(=O)CCCCS(C)(=O)=O)B(O)O)c1 [Compound No. 22, [(1R)-2-(3-ethylphenyl)-1-(5-methylsulfonylpentanoylamino)ethyl]-boronic acid]
13 | < 50 | CS(=O)(=O)CCC(=O)N[C@@H](Cc1coc2ccccc12)B(O)O [Compound No. 23, [(1R)-2-(benzofuran-3-yl)-1-(3-methylsulfonylpropanoylamino)ethyl]-boronic acid]
